Here are results for 48 compounds from PMC6753678, “Fueling Open Innovation for Malaria Transmission-Blocking Drugs: Hundreds of Molecules Targeting Early Parasite Mosquito Stages” (Frontiers in Microbiology, 2019).

For the assay, the system named is P. berghei ookinete development. The note with it: for % inhibition, Replicate A / % inhibition, Replicate B: primary screen at 1 μM.

pIC50: −log10 of the molar value.

As to `Cc1nc(SCC(=O)N2CCCC2=O)c2c(C)c(C)sc2n1` [TCMDC-123558], the “% inhibition, Replicate A” value is 50.04% and the “% inhibition, Replicate B” value worked out at 22.22%.

In the case of `CC(C)Oc1ccc2c(c1)OC(c1ccccc1)(C(F)(F)F)NC2=O` (stereo not shown) [TCMDC-123633], the “% inhibition, Replicate A” value is listed as 24.49% and the “% inhibition, Replicate B” value is given as 54.58%.

As for `O=C(Nc1ccccc1O)c1ccc(S(=O)(=O)c2ccc(Cl)cc2)cc1` [TCMDC-123689], the “% inhibition, Replicate A” value was determined as 23.88% and the “% inhibition, Replicate B” value turned out to be 50.54%.

Consider `CCCC(=O)Nc1ccc(Cl)c(NC(=O)COc2cc(C)ccc2C(C)C)c1` [TCMDC-123706], for which the “% inhibition, Replicate A” value is listed as 60.12% and the “% inhibition, Replicate B” value is listed as 20.94%.

For the compound `Cl.O=C(CNC1CCCCC1)c1ccc(O)c(O)c1` [TCMDC-123961], the “% inhibition, Replicate A” value is recorded as 31.52% and the “% inhibition, Replicate B” value is listed as 68.95%.

`CC1Cc2ccccc2N1S(=O)(=O)c1cc(OCC(F)(F)F)ccc1OCC(F)(F)F` (stereo not shown) [TCMDC-124044]: the “% inhibition, Replicate A” value worked out at 52.34% and the “% inhibition, Replicate B” value turned out to be 21.81%.

With `CCOC(=O)c1cn(CC)c2cc(N3CCCCCC3)c(F)cc2c1=O` [TCMDC-124160], the “% inhibition, Replicate A” value came to 101.92% and the “% inhibition, Replicate B” value is 113.32%.

Regarding `c1ccc(-c2csc(Nc3nc4cc5c(cc4s3)OCO5)n2)nc1` [TCMDC-124550], the “% inhibition, Replicate A” value is recorded as 83.78% and the “% inhibition, Replicate B” value was 59.07%.

For `Cc1ccc(CN2CCC(C(=O)Nc3ccc(-c4cc5ccccc5[nH]4)cc3)CC2)o1` [TCMDC-124634], the “% inhibition, Replicate A” value is reported as 35.55% and the “% inhibition, Replicate B” value was determined as 65.49%.

Turning to `COc1cc(OC)cc(C(=O)Nc2ccc(Nc3nc(C)cc(N(C)C)n3)cc2)c1` [TCMDC-124726], the “% inhibition, Replicate A” value was 52.96% and the “% inhibition, Replicate B” value was 25.99%.

Take `Cc1ccc(-c2noc(COc3ccccc3C(=O)NC3CCCC3)n2)cc1` [TCMDC-124748]: the “% inhibition, Replicate A” value is reported as 70.37% and the “% inhibition, Replicate B” value stood at 89.43%.

Regarding `Cc1cc(C(=O)NC2CCN(CC3(c4ccc(Cl)cc4)CCC3)CC2)on1` [TCMDC-124833], the “% inhibition, Replicate A” value was 70.28% and the “% inhibition, Replicate B” value is recorded as 68.63%.

As for `O=C(CSc1nn(-c2ccccc2)c(=S)s1)c1c[nH]c2ccccc12` [TCMDC-124894], the “% inhibition, Replicate A” value was determined as 61.81% and the “% inhibition, Replicate B” value turned out to be 32.04%.

Consider `COc1cc(CN2CCN(c3ccnc(N(C)C4CCN(C)CC4)n3)CC2)cc(Cl)c1O` [TCMDC-125096], for which the “% inhibition, Replicate A” value was determined as 51.09% and the “% inhibition, Replicate B” value is 24.20%.

On to `CCN(CC)CCCC(C)Nc1c2ccc(Cl)cc2nc2ccc(OC)cc12.Cl.O` (stereo not shown) [TCMDC-125480], for which the “% inhibition, Replicate A” value was determined as 33.29% and the “% inhibition, Replicate B” value turned out to be 58.69%.

As to `Br.CCc1ccccc1OCCCON1C(=N)N=C(N)NC1(C)C` [TCMDC-131305], the “% inhibition, Replicate A” value came to 58.24% and the “% inhibition, Replicate B” value was 46.89%.

With `CCSc1ccccc1COc1c(C)nc(N)nc1N.Cl` [TCMDC-131359], the “% inhibition, Replicate A” value came out at 61.82% and the “% inhibition, Replicate B” value was determined as 19.87%.

In the case of `N=C1NC(=N)N(OCCCCCCON2C(=N)NC(=N)NC2C=Cc2ccccc2)C(C=Cc2ccccc2)N1` (stereo not shown) [TCMDC-131602], the “% inhibition, Replicate A” value is listed as 52.81% and the “% inhibition, Replicate B” value was found to be 32.33%.

Turning to `Br.CC1(C)N=C(N)N=C(N)N1OCCc1ccc2ccccc2c1` [TCMDC-131755], the “% inhibition, Replicate A” value is on record as 66.00% and the “% inhibition, Replicate B” value was 52.02%.

As for `CC(C)c1cccc(C(C)C)c1NC(=O)NNC(=O)c1ccc(CCN2CCC(c3nc(COCC(F)(F)F)c(-c4ccc(F)cc4)o3)CC2)cc1` [TCMDC-131908], the “% inhibition, Replicate A” value stood at 61.66% and the “% inhibition, Replicate B” value was found to be 23.60%.

With `CN1CCC(C(=O)Nc2ccc(-c3cccc(-c4nc5cc(F)ccc5[nH]4)c3)cc2)CC1` [TCMDC-132180], the “% inhibition, Replicate A” value came to 7.14% and the “% inhibition, Replicate B” value is 53.61%.

Turning to `CS(=O)(=O)NCCCNCc1cccc(-c2ccc(-c3nc4ccccc4[nH]3)s2)c1.O=C(O)C(F)(F)F` [TCMDC-133088], the “% inhibition, Replicate A” value was 41.67% and the “% inhibition, Replicate B” value is given as 56.04%.

As to `Cc1cccc2nc(-c3ccc(-c4ccc(NC(=O)NCc5cccc(F)c5)cc4)cc3)[nH]c12` [TCMDC-133294], the “% inhibition, Replicate A” value is recorded as 56.07% and the “% inhibition, Replicate B” value is reported as 54.12%.

With `COc1ccc(Nc2nc(C)cc(NC3CCCC3)n2)cc1` [TCMDC-133465], the “% inhibition, Replicate A” value came to 51.72% and the “% inhibition, Replicate B” value is 31.38%.

Take `Cc1cc(Nc2cccc(C#N)c2)nc(Nc2ccccc2C)n1` [TCMDC-133471]: the “% inhibition, Replicate A” value is 56.49% and the “% inhibition, Replicate B” value was determined as 36.05%.

For `O=C(Nc1cccc(C(F)(F)F)c1)c1cccc(S(=O)(=O)NCC2CCCN2CC2CCCCC2)c1.O=C(O)C(F)(F)F` (stereo not shown) [TCMDC-133687], the “% inhibition, Replicate A” value stood at 11.95% and the “% inhibition, Replicate B” value is given as 57.11%.

Consider `Cc1cccc2nc(-c3ccc(-c4cccc(CN5CCCC(N)C5)c4)s3)[nH]c12.O=C(O)C(F)(F)F` (stereo not shown) [TCMDC-133874], for which the “% inhibition, Replicate A” value was determined as 50.71% and the “% inhibition, Replicate B” value turned out to be 12.43%.

Regarding `COc1ccc(-c2cc(C(=O)Nc3ccc4[nH]c(-c5ccccc5)nc4c3)[nH]n2)cc1.O=C(O)C(F)(F)F` [TCMDC-134399], the “% inhibition, Replicate A” value was 46.43% and the “% inhibition, Replicate B” value came to 56.04%.

Regarding `COc1ccccc1-c1cccc(CNC2CCN(CC3Cn4c(=O)ccc5ccc(F)c3c54)CC2)c1.O=C(O)C(F)(F)F` (stereo not shown) [TCMDC-134411], the “% inhibition, Replicate A” value came out at 72.27% and the “% inhibition, Replicate B” value came out at 57.51%.

Turning to `COc1ccc2nccc(N3CCC(NCCNCc4ccc5c(n4)NC(=O)CS5)C3)c2n1.Cl` (stereo not shown) [TCMDC-134649], the “% inhibition, Replicate A” value amounted to 18.73% and the “% inhibition, Replicate B” value worked out at 51.52%.

For `O=C(NCc1cccs1)[C@H](Cc1ccccc1)Nc1ccnc(NCC2CCCCC2)n1.O=C(O)C(F)(F)F` [TCMDC-134708], the “% inhibition, Replicate A” value is 21.89% and the “% inhibition, Replicate B” value worked out at 53.00%.

One may read the pIC50 as the negative decadic logarithm of the IC50, by convention in mol/L. Regarding `COc1cc(OC)cc(-c2nn(-c3ccc([N+](=O)[O-])cc3C#N)c(=S)n2CC2CCCO2)c1` (stereo not shown) [TCMDC-134716], the “% inhibition, Replicate A” value was 44.85% and the “% inhibition, Replicate B” value worked out at 53.94%. In addition, the pIC50 (read-out: Pb Ookinete development assay IC50, dose response confirmation) was 5.26.

On to `N#Cc1cc([N+](=O)[O-])ccc1-n1nc(-c2cccc(Cl)c2)n(Cc2ccco2)c1=S` [TCMDC-134717], for which the “% inhibition, Replicate A” value came out at 64.43% and the “% inhibition, Replicate B” value is recorded as 77.59%.

As to `COc1ccccc1CCNc1nc(C)cc(N[C@@H](Cc2ccccc2)C(=O)Nc2ccccc2)n1.O=C(O)C(F)(F)F` [TCMDC-134804], the “% inhibition, Replicate A” value is 57.50% and the “% inhibition, Replicate B” value is 38.80%.

Consider `CN(Cc1ccccc1)C1CCN(c2cc(NC(=O)c3cccc(F)c3)ccn2)CC1.O=C(O)C(F)(F)F` [TCMDC-135000], for which the “% inhibition, Replicate A” value is 52.34% and the “% inhibition, Replicate B” value came to 57.11%.

Take `Nc1ncnc2cc(-c3cccc(S(N)(=O)=O)c3)sc12` [TCMDC-135294]: the “% inhibition, Replicate A” value amounted to 103.63% and the “% inhibition, Replicate B” value stood at 97.06%.

For the compound `Cc1[nH]c(C)c(-c2cccc(-c3ccc(OC(F)(F)F)cc3)c2)c(=O)c1Br` [TCMDC-135303], the “% inhibition, Replicate A” value is given as 52.85% and the “% inhibition, Replicate B” value was 65.81%.

For the compound `COc1ccc2nc(-c3cc(-c4ccc(NC(=O)CN5CCOCC5)cc4)cnc3N)[nH]c2c1` [TCMDC-135373], the “% inhibition, Replicate A” value stood at 111.93% and the “% inhibition, Replicate B” value is reported as 79.71%.

For `COc1cc(C(=O)N2CCOC(CCN3CCC(c4ccc(Cl)cc4)CC3)(c3ccc(Cl)c(Cl)c3)C2)cc(OC)c1OC` (stereo not shown) [TCMDC-135566], the “% inhibition, Replicate A” value came out at 63.32% and the “% inhibition, Replicate B” value came out at 35.61%.

Consider `CS(=O)(=O)Cc1ccc(Nc2nccc(-c3c(-c4cccc(NC(=O)c5c(F)cccc5F)c4)nn4ccccc34)n2)cc1` [TCMDC-135669], for which the “% inhibition, Replicate A” value amounted to 21.89% and the “% inhibition, Replicate B” value worked out at 53.61%.

Take `Cl.O=C(CC1CCCC1)N(CC1CCN(Cc2ccc(C(F)(F)F)cc2)CC1)c1ccc(N2CCOCC2)c(F)c1` [TCMDC-135855]: the “% inhibition, Replicate A” value is 65.53% and the “% inhibition, Replicate B” value is recorded as 32.88%.

Consider `O=C(Nc1ccc(Cl)cc1)N(CC1CC2CCC(C1)N2Cc1ccc(C(F)(F)F)cc1)c1ccc(N2CCOCC2)c(F)c1` (stereo not shown) [TCMDC-135859], for which the “% inhibition, Replicate A” value is 55.58% and the “% inhibition, Replicate B” value was determined as 25.24%.

Regarding `O=C(/C=C/c1ccc(Cl)c(Cl)c1)NCCCCCN1CCCN(C(=O)Nc2cc(Cl)nc(Cl)c2)CC1` [TCMDC-135888], the “% inhibition, Replicate A” value was determined as 61.66% and the “% inhibition, Replicate B” value came to 48.73%.

Consider `Cc1nc2ccc(-c3ccc(OC(F)(F)F)cc3)cc2c(O)c1C#N` [TCMDC-136129], for which the “% inhibition, Replicate A” value was 117.05% and the “% inhibition, Replicate B” value was found to be 93.07%.

Turning to `Cc1[nH]cc(Br)c(=O)c1-c1ccc(Oc2ccc(OC(F)(F)F)cc2)cc1` [TCMDC-136197], the “% inhibition, Replicate A” value was 35.07% and the “% inhibition, Replicate B” value came out at 51.32%.

For the compound `CCc1ccc(NC(=O)c2ccc(CN3CCCN(CC4CCCCC4)CC3)cc2)cc1.O=C(O)C(F)(F)F` [TCMDC-136437], the “% inhibition, Replicate A” value is 48.61% and the “% inhibition, Replicate B” value is recorded as 52.92%.

On to `CC(C)COc1ccc(Cl)cc1Cc1ccc(-c2nc3cnc4ccccc4c3[nH]2)o1` [TCMDC-136650], for which the “% inhibition, Replicate A” value is given as 61.46% and the “% inhibition, Replicate B” value is reported as 37.55%.

As for `Cc1cnc(C(=O)Nc2cccc(-c3ccc(-c4nc5cc(C(F)(F)F)ccc5[nH]4)s3)c2)cn1` [TCMDC-137028], the “% inhibition, Replicate A” value was found to be 1.65% and the “% inhibition, Replicate B” value was determined as 57.27%.
